Key:
Assay in all cases: Growth inhibition assay
Type in all cases: cell-based
K562 = conditions: Homo sapiens; K562 (Leukemia), 48 hours
Experimental: (§1) Cells were seeded in 96-well plastic plates and exposed to MPT0L056 for 48 hours. Cell viability was assessed using the 3-(4,5-dimethylthiazol-2-yl)-2,5-diphenyltetrazolium bromide assay. Growth inhibition was expressed as the percentage of surviving cells in drug-treated versus DMSO-treated control cells.

PC-3 = conditions: Homo sapiens; PC-3 (Prostate cancer), 48 hours
Experimental: as §1

HUVECs = conditions: Homo sapiens, HUVEC; HUVECs (Normal cells), 48 hours
Experimental: as §1

OVCAR4 = conditions: Homo sapiens, OVCAR-4; OVCAR4 (Ovarian cancer), 48 hours
Experimental: as §1

HT-29 = conditions: Homo sapiens; HT-29 (Colorectal cancer), 48 hours
Experimental: as §1

A431 = conditions: Homo sapiens, A-431; A431 (Skin cancer), 48 hours
Experimental: as §1

H33HJ-JA1 = H33HJ-JA1 (T cell lymphoma), 48 hours
Experimental: as §1

A549 = conditions: Homo sapiens; A549 (Lung cancer), 48 hours
Experimental: as §1

NCI-H460 = conditions: Homo sapiens; NCI-H460 (Lung cancer), 48 hours
Experimental: as §1

ZR-75 = conditions: ZR75; ZR-75 (Breast cancer), 48 hours
Experimental: as §1

SK-MEL-5 = conditions: Homo sapiens; SK-MEL-5 (Melanoma), 48 hours
Experimental: as §1

NHDF = conditions: Homo sapiens; NHDF (Normal cells), 48 hours
Experimental: as §1

PC-6 = conditions: Homo sapiens; PC-6 (Lung cancer), 48 hours
Experimental: as §1

REH = conditions: Homo sapiens; REH (B cell leukemia), 48 hours
Experimental: as §1

KATO III = conditions: Homo sapiens; KATO III (Stomach cancer), 48 hours
Experimental: as §1

MOLT4 = conditions: Homo sapiens, MOLT-4; MOLT4 (Leukemia), 48 hours
Experimental: as §1

AsPC1 = conditions: Homo sapiens; AsPC1 (Pancreas cancer), 48 hours
Experimental: as §1

Ramos = conditions: Homo sapiens; Ramos (B cell leukemia), 48 hours
Experimental: as §1

A-498 = conditions: Homo sapiens, A498; A-498 (Kidney cancer), 48 hours
Experimental: as §1

ACHN = conditions: Homo sapiens; ACHN (Kidney cancer), 48 hours
Experimental: as §1

BxPC3 = conditions: Homo sapiens, BXPC-3; BxPC3 (Pancreas cancer), 48 hours
Experimental: as §1

Which GI50 (K562) does the source give for `O=C(Nc1ccncc1)c1ccc(CNC2=C(Cl)C(=O)c3ccccc3C2=O)cc1` [MPT0L056] here?
Its GI50 is 1.7 µM.

What about the GI50 (PC-3) of the same molecule?
Its GI50 is 2.5 µM.

What about the GI50 (HUVECs) of the same molecule?
The GI50 was 16 µM.

What about the GI50 (OVCAR4) of the same molecule?
The GI50 was 1.4 µM.

And the GI50 (HT-29)?
Its GI50 is 3.8 µM.

And the GI50 (A431)?
The GI50 was 1.2 µM.

What about the GI50 (H33HJ-JA1) of the same molecule?
Its GI50 is 1.8 µM.

And the GI50 (A549)?
The GI50 was over 5 µM.

And the GI50 (NCI-H460)?
The GI50 was 2.9 µM.

What about the GI50 (ZR-75) of the same molecule?
Its GI50 is over 5 µM.

What about the GI50 (SK-MEL-5) of the same molecule?
The GI50 was 0.21 µM.

What about the GI50 (NHDF) of the same molecule?
Its GI50 is 6.3 µM.

And the GI50 (PC-6)?
Its GI50 is 1.8 µM.

And the GI50 (REH)?
The GI50 was 2.8 µM.

What about the GI50 (KATO III) of the same molecule?
Its GI50 is 2.4 µM.

What about the GI50 (MOLT4) of the same molecule?
Its GI50 is 4 µM.

What about the GI50 (AsPC1) of the same molecule?
Its GI50 is 4.6 µM.

And the GI50 (Ramos)?
Its GI50 is 0.89 µM.

And the GI50 (A-498)?
Its GI50 is 3.5 µM.

What about the GI50 (ACHN) of the same molecule?
The GI50 was 2.7 µM.

And the GI50 (BxPC3)?
The GI50 was 1.2 µM.
